Measurements published in BindingDB's records for doi:10.1016/0960-894X(95)00044-T (1995).

Biological target: DNA
Assay: Inhibition of calf thymus DNA/ethidium bromide complex formation.

For `Cc1cc(-c2c(F)cc3c4nn(C5CCN(C)CC5)c(=O)c-4cn(C4CC4)c3c2F)cc(C)n1` [5-Cyclopropyl-7-(2,6-dimethyl-pyridin-4-yl)-6,8-difluoro-2-(1-methyl-piperidin-4-yl)-2,5-dihydro-pyrazolo[4,3-c]quinolin-3-one], the EC50 was over 50 µM.
`Cc1cc(-c2c(F)cc3c4nn(C5CCOCC5)c(=O)c-4cn(C4CC4)c3c2F)cc(C)n1` [5-Cyclopropyl-7-(2,6-dimethyl-pyridin-4-yl)-6,8-difluoro-2-(tetrahydro-pyran-4-yl)-2,5-dihydro-pyrazolo[4,3-c]quinolin-3-one] was tested, and the EC50 was over 50 µM.
Compound `Cc1cc(-c2c(F)cc3c4nn(C5CCC(C)CC5)c(=O)c-4cn(C4CC4)c3c2F)cc(C)n1` (stereo unspecified) [5-Cyclopropyl-7-(2,6-dimethyl-pyridin-4-yl)-6,8-difluoro-2-(4-methyl-cyclohexyl)-2,5-dihydro-pyrazolo[4,3-c]quinolin-3-one] has an EC50 of over 50 µM.
In the case of `Cc1cc(-c2c(F)cc3c4nn([C@H]5CC[C@H](N)CC5)c(=O)c-4cn(C4CC4)c3c2F)cc(C)n1` [2-(4-Amino-cyclohexyl)-5-cyclopropyl-7-(2,6-dimethyl-pyridin-4-yl)-6,8-difluoro-2,5-dihydro-pyrazolo[4,3-c]quinolin-3-one], the EC50 is reported as over 50 µM.
In the case of `Cc1cc(-c2c(F)cc3c4nn(-c5ccccc5)c(=O)c-4cn(C4CC4)c3c2F)cc(C)n1` [5-Cyclopropyl-7-(2,6-dimethyl-pyridin-4-yl)-6,8-difluoro-2-phenyl-2,5-dihydro-pyrazolo[4,3-c]quinolin-3-one], the EC50 is reported as over 60 µM.
In the case of `Cc1cc(-c2c(F)cc3c4nn(CCNCCO)c(=O)c-4cn(C4CC4)c3c2F)cc(C)n1` [5-Cyclopropyl-7-(2,6-dimethyl-pyridin-4-yl)-6,8-difluoro-2-[2-(2-hydroxy-ethylamino)-ethyl]-2,5-dihydro-pyrazolo[4,3-c]quinolin-3-one], the EC50 is reported as 1.2 µM.
`Cc1cc(-c2c(F)cc3c4nn([C@H]5CC[C@@H](N(C)C)CC5)c(=O)c-4cn(C4CC4)c3c2F)cc(C)n1` [5-Cyclopropyl-2-(4-dimethylamino-cyclohexyl)-7-(2,6-dimethyl-pyridin-4-yl)-6,8-difluoro-2,5-dihydro-pyrazolo[4,3-c]quinolin-3-one] was tested, and the EC50 was over 50 µM.
With `Cc1cc(-c2c(F)cc3c4nn(C5CCCCC5)c(=O)c-4cn(C4CC4)c3c2F)cc(C)n1` [2-Cyclohexyl-5-cyclopropyl-7-(2,6-dimethyl-pyridin-4-yl)-6,8-difluoro-2,5-dihydro-pyrazolo[4,3-c]quinolin-3-one] the EC50 was over 50 µM.
`CC(=O)N[C@H]1CC[C@@H](n2nc3c4cc(F)c(-c5cc(C)nc(C)c5)c(F)c4n(C4CC4)cc-3c2=O)CC1` [N-{4-[5-Cyclopropyl-7-(2,6-dimethyl-pyridin-4-yl)-6,8-difluoro-3-oxo-3,5-dihydro-pyrazolo[4,3-c]quinolin-2-yl]-cyclohexyl}-acetamide] gave an EC50 of over 52 µM.
In the case of `Cc1cc(-c2c(F)cc3c(=O)ccn(C4CC4)c3c2F)cc(C)n1` [1-Cyclopropyl-7-(2,6-dimethyl-pyridin-4-yl)-6,8-difluoro-1H-quinolin-4-one], the EC50 is reported as over 55 µM.
`Cc1cc(-c2c(F)cc3c4nn([C@H]5CC[C@H](N(C)C)CC5)c(=O)c-4cn(C4CC4)c3c2F)cc(C)n1` [5-Cyclopropyl-2-(4-dimethylamino-cyclohexyl)-7-(2,6-dimethyl-pyridin-4-yl)-6,8-difluoro-2,5-dihydro-pyrazolo[4,3-c]quinolin-3-one] showed an EC50 of over 50 µM.
`Cc1cc(-c2c(F)cc3c4nn([C@H]5CC[C@@H](N)CC5)c(=O)c-4cn(C4CC4)c3c2F)cc(C)n1` [2-(4-Amino-cyclohexyl)-5-cyclopropyl-7-(2,6-dimethyl-pyridin-4-yl)-6,8-difluoro-2,5-dihydro-pyrazolo[4,3-c]quinolin-3-one] showed an EC50 of over 50 µM.
With `Cc1cc(-c2c(F)cc3c(=O)c(C(=O)O)cn(C4CC4)c3c2F)cc(C)n1` [WIN-57294] the EC50 was over 54 µM.
`Cc1cc(-c2c(F)cc3c4nn(CC(=O)O)c(=O)c-4cn(C4CC4)c3c2F)cc(C)n1` [[5-Cyclopropyl-7-(2,6-dimethyl-pyridin-4-yl)-6,8-difluoro-3-oxo-3,5-dihydro-pyrazolo[4,3-c]quinolin-2-yl]-acetic acid] showed an EC50 of over 60 µM.
Compound `Cc1cc(-c2c(F)cc3c4nn(CCCN(C)C)c(=O)c-4cn(C4CC4)c3c2F)cc(C)n1` [5-Cyclopropyl-2-(3-dimethylamino-propyl)-7-(2,6-dimethyl-pyridin-4-yl)-6,8-difluoro-2,5-dihydro-pyrazolo[4,3-c]quinolin-3-one] has an EC50 of over 50 µM.
`Cc1cc(-c2c(F)cc3c4nn(C)c(=O)c-4cn(C4CC4)c3c2F)cc(C)n1` [5-Cyclopropyl-7-(2,6-dimethyl-pyridin-4-yl)-6,8-difluoro-2-methyl-2,5-dihydro-pyrazolo[4,3-c]quinolin-3-one] gave an EC50 of over 60 µM.
`CCOC(=O)Cn1nc2c3cc(F)c(-c4cc(C)nc(C)c4)c(F)c3n(C3CC3)cc-2c1=O` [[5-Cyclopropyl-7-(2,6-dimethyl-pyridin-4-yl)-6,8-difluoro-3-oxo-3,5-dihydro-pyrazolo[4,3-c]quinolin-2-yl]-acetic acid ethyl ester] showed an EC50 of over 60 µM.
Work on `Cc1cc(-c2c(F)cc3c4nn(CCO)c(=O)c-4cn(C4CC4)c3c2F)cc(C)n1` [5-Cyclopropyl-7-(2,6-dimethyl-pyridin-4-yl)-6,8-difluoro-2-(2-hydroxy-ethyl)-2,5-dihydro-pyrazolo[4,3-c]quinolin-3-one] yielded an EC50 of over 60 µM.
Work on `CC(=O)N[C@H]1CC[C@H](n2nc3c4cc(F)c(-c5cc(C)nc(C)c5)c(F)c4n(C4CC4)cc-3c2=O)CC1` [N-{4-[5-Cyclopropyl-7-(2,6-dimethyl-pyridin-4-yl)-6,8-difluoro-3-oxo-3,5-dihydro-pyrazolo[4,3-c]quinolin-2-yl]-cyclohexyl}-acetamide] yielded an EC50 of over 51 µM.
`Cc1cc(-c2c(F)cc3c4nn(CCN(C)C)c(=O)c-4cn(C4CC4)c3c2F)cc(C)n1` [5-Cyclopropyl-2-(2-dimethylamino-ethyl)-7-(2,6-dimethyl-pyridin-4-yl)-6,8-difluoro-2,5-dihydro-pyrazolo[4,3-c]quinolin-3-one] showed an EC50 of 0.93 µM.
`Cc1cc(-c2c(F)cc3c4n[nH]c(=O)c-4cn(C4CC4)c3c2F)cc(C)n1` [5-Cyclopropyl-7-(2,6-dimethyl-pyridin-4-yl)-6,8-difluoro-2,5-dihydro-pyrazolo[4,3-c]quinolin-3-one] showed an EC50 of 27 µM.
